This note sets out measurements from patent US20190119204A1, “ROR GAMMA (RORy) MODULATORS” (Lead Pharma Holding B.V., priority 2016, published 2019).

Data set [1] concerns the target T1, RORγ (Homo sapiens, UniProt P51449).
T1 construct: expressed in transfected cells; host or cells: 293FT cells (Invitrogen), expression vector pFN26A (Promega)
T1 sequence (P51449 269-508 limits assumed): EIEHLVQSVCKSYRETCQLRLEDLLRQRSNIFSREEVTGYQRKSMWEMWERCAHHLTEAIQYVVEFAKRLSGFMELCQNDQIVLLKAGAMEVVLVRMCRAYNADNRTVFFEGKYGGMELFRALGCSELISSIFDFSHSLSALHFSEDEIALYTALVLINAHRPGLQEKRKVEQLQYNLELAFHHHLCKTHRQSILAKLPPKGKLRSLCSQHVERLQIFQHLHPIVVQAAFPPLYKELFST
Kind of data set: RORγ GAL4 reporter gene assay. The class given is cell-based. As to conditions: 293FT cells, luciferase readout; average of 5 experiments; read-out: RORγ GAL4 reporter gene assay pIC50 Average (converted). The protocol:
Examples 2-3 of the present […] application and example No. 37 from WO2015/082533 were tested for their ability to inhibit RORγ activity in a RORγ GAL4 reporter gene assay.
A GAL4 one-hybrid reporter system employing luciferase readout was established to determine inhibition of RORγ in 293FT cells. The RORγ ligand-binding domain (LBD) was fused to the yeast GAL4 DNA binding domain (DBD) and placed under the control of the human cytomegalovirus (CMV) immediate early promoter, using expression vector pFN26A (Promega) and standard recombinant DNA cloning methods. To serve as a control in the assay, a similar vector was generated in which the GAL4-DBD was fused to Herpes simplex virus protein 16 (VP16), a constitutive transcriptional activator.
To monitor the inhibitory effect of compounds on RORγ, a transcriptional reporter construct was used. The pGL4.35 vector (Promega) contains nine copies of the GAL4 Upstream Activator Sequence (UAS). […]
The day after transfection, cells were plated into 96 well plates, test compound was added and the plates were incubated overnight. Subsequently, the firefly luciferase activity was quantified using luciferase detection reagent and luminescence readout. […]
For compound screening, the cells were harvested (as described above) and counted. […]

The nature of data set [2]: Aqueous equilibrated solubility. The class given is physicochemical. As to conditions: thermodynamic from solid; aqueous phosphate buffer 50 mM pH 7.4, shaken overnight at RT; pH 7.5 = pH of the solubilized fraction. The protocol: The studied compound was accurately weighted with a target concentration of 2 mg/mL in an aqueous phosphate buffer (50 mM at pH=7.4). The solution was shaken overnight (rock'n roll shaker) at RT and protected from light (about 24 hrs). The solution was filtered in plate filter device (microplate Millipore “Solvinert” with integrated PTFE filter; 0.45 μm) and the filtrate was dosed by LC/UV method.
The studied compound was accurately weighted with a target concentration of 0.1 mg/mL in DMSO. The solution was sonicated at RT and protected from light. The reference solution was dosed by a LC/UV method and pH of the solubilized fraction was measured.

Turning to `O=C(Cc1ccc(S(=O)(=O)CC2CC2)cc1)Nc1ccc([C@@](O)(C(F)F)C(F)(F)F)cc1` [Example 2, (+)-2-[4-(cyclopropylmethylsulfonyl)phenyl]-N-[4-[(1R)-1-(difluoromethyl)-2,2,2-trifluoro-1-hydroxy-ethyl]phenyl]acetamide], the IC50 in data set [1] was 39.8 nM. Moreover, the solubility (in general, how much of the substance goes into solution per volume) at 24 h in data set [2] is under 1 µg/mL.

On to `O=C(Cc1ccc(S(=O)(=O)CC2CC2)cc1)Nc1ccc([C@](O)(C(F)F)C(F)(F)F)cc1` [Example 3, (−)-2-[4-(cyclopropylmethylsulfonyl)phenyl]-N-[4-[(1S)-1-(difluoromethyl)-2,2,2-trifluoro-1-hydroxy-ethyl]phenyl]acetamide], for which the IC50 in data set [1] was 12.6 nM. The same compound yielded a solubility at 24 h in data set [2] of under 1 µg/mL.
